From publication PMC9401487 (Clinical Cancer Research, 2021)

Tested on: patients with advanced solid tumors
Test: Phase I safety and tolerability
Format: in vivo, human
[1] = Cohort 7 (N=6), co-dosing 40 mg QD + carboplatin days 1 and 2
[2] = Cohort 7: 40 mg QD days 1–2 + carboplatin AUC5 day 1, 6 patients
[3] = all 36 patients, ceralasertib + carboplatin

C[C@@H]1COCCN1c1cc(C2([S@](C)(=N)=O)CC2)nc(-c2cc[nH]c3nccc2-3)n1 [ceralasertib]
TEAE Constipation, Grade 1–2 [1]: 3 (50) patients, n (%) | TEAE Constipation, Grade ≥3 [1]: 0 patients, n (%) | TEAE Contusion, Grade 1–2 [1]: 1 (17) patients, n (%) | TEAE Contusion, Grade ≥3 [1]: 0 patients, n (%) | TEAE Cough, Grade 1–2 [1]: 0 patients, n (%) | TEAE Cough, Grade ≥3 [1]: 0 patients, n (%) | TEAE Decreased appetite, Grade 1–2 [1]: 3 (50) patients, n (%) | TEAE Decreased appetite, Grade ≥3 [1]: 0 patients, n (%) | TEAE Diarrhea, Grade 1–2 [1]: 1 (17) patients, n (%) | TEAE Diarrhea, Grade ≥3 [1]: 0 patients, n (%) | TEAE Dizziness, Grade 1–2 [1]: 0 patients, n (%) | TEAE Dizziness, Grade ≥3 [1]: 0 patients, n (%) | TEAE Dyspnea, Grade 1–2 [1]: 0 patients, n (%) | TEAE Dyspnea, Grade ≥3 [1]: 0 patients, n (%) | TEAE Fatigue, Grade 1–2 [1]: 4 (67) patients, n (%) | TEAE Fatigue, Grade ≥3 [1]: 0 patients, n (%) | TEAE Hypocalcemia, Grade 1–2 [1]: 1 (17) patients, n (%) | TEAE Hypocalcemia, Grade ≥3 [1]: 0 patients, n (%) | TEAE Insomnia, Grade 1–2 [1]: 0 patients, n (%) | TEAE Insomnia, Grade ≥3 [1]: 0 patients, n (%) | TEAE Lower respiratory tract infection, Grade 1–2 [1]: 0 patients, n (%) | TEAE Lower respiratory tract infection, Grade ≥3 [1]: 0 patients, n (%) | TEAE Nausea, Grade 1–2 [1]: 5 (83) patients, n (%) | TEAE Nausea, Grade ≥3 [1]: 0 patients, n (%) | TEAE Neutropenia, Grade 1–2 [1]: 0 patients, n (%) | TEAE Neutropenia, Grade ≥3 [1]: 0 patients, n (%) | TEAE Neutrophil count decreased, Grade 1–2 [1]: 0 patients, n (%) | TEAE Neutrophil count decreased, Grade ≥3 [1]: 1 (17) patients, n (%) | TEAE Platelet count decreased, Grade 1–2 [1]: 2 (33) patients, n (%) | TEAE Platelet count decreased, Grade ≥3 [1]: 1 (17) patients, n (%) | TEAE Pyrexia, Grade 1–2 [1]: 1 (17) patients, n (%) | TEAE Pyrexia, Grade ≥3 [1]: 0 patients, n (%) | TEAE Thrombocytopenia, Grade 1–2 [1]: 0 patients, n (%) | TEAE Thrombocytopenia, Grade ≥3 [1]: 0 patients, n (%) | TEAE Upper respiratory tract infection, Grade 1–2 [1]: 1 (17) patients, n (%) | TEAE Upper respiratory tract infection, Grade ≥3 [1]: 0 patients, n (%) | TEAE Vomiting, Grade 1–2 [1]: 0 patients, n (%) | TEAE Vomiting, Grade ≥3 [1]: 1 (17) patients, n (%) | TEAE White blood cell count decreased, Grade 1–2 [1]: 0 patients, n (%) | TEAE White blood cell count decreased, Grade ≥3 [1]: 0 patients, n (%) | Number of DLTs [2]: one DLT of grade 4 platelet count decreased | SRC decision (tolerability) [2]: declared safe and well tolerated | Patients who discontinued treatment because of an AE (N=36): 14% | TEAE Abdominal pain, Grade 1–2 (Total (N=36)): 5 (14) patients, n (%) | TEAE Abdominal pain, Grade ≥3 (Total (N=36)): 1 (3) patients, n (%) | TEAE Alanine aminotransferase increased, Grade 1–2 (Total (N=36)): 3 (8) patients, n (%) | TEAE Alanine aminotransferase increased, Grade ≥3 (Total (N=36)): 1 (3) patients, n (%) | TEAE Anemia, Grade 1–2 (Total (N=36)): 11 (31) patients, n (%) | TEAE Anemia, Grade ≥3 (Total (N=36)): 14 (39) patients, n (%) | TEAE Any AE, Grade 1–2 (Total (N=36)): 9 (25) patients, n (%) | TEAE Any AE, Grade ≥3 (Total (N=36)): 27 (75) patients, n (%) | TEAE Arthralgia, Grade 1–2 (Total (N=36)): 4 (11) patients, n (%) | TEAE Arthralgia, Grade ≥3 (Total (N=36)): 0 patients, n (%) | TEAE Aspartate aminotransferase increased, Grade 1–2 (Total (N=36)): 3 (8) patients, n (%) | TEAE Aspartate aminotransferase increased, Grade ≥3 (Total (N=36)): 1 (3) patients, n (%) | TEAE Constipation, Grade 1–2 (Total (N=36)): 10 (28) patients, n (%) | TEAE Constipation, Grade ≥3 (Total (N=36)): 0 patients, n (%) | TEAE Contusion, Grade 1–2 (Total (N=36)): 4 (11) patients, n (%) | TEAE Contusion, Grade ≥3 (Total (N=36)): 0 patients, n (%) | TEAE Cough, Grade 1–2 (Total (N=36)): 5 (14) patients, n (%) | TEAE Cough, Grade ≥3 (Total (N=36)): 0 patients, n (%) | TEAE Decreased appetite, Grade 1–2 (Total (N=36)): 8 (22) patients, n (%) | TEAE Decreased appetite, Grade ≥3 (Total (N=36)): 0 patients, n (%) | TEAE Diarrhea, Grade 1–2 (Total (N=36)): 6 (17) patients, n (%) | TEAE Diarrhea, Grade ≥3 (Total (N=36)): 0 patients, n (%) | TEAE Dizziness, Grade 1–2 (Total (N=36)): 4 (11) patients, n (%) | TEAE Dizziness, Grade ≥3 (Total (N=36)): 0 patients, n (%) | TEAE Dyspnea, Grade 1–2 (Total (N=36)): 5 (14) patients, n (%) | TEAE Dyspnea, Grade ≥3 (Total (N=36)): 0 patients, n (%) | TEAE Fatigue, Grade 1–2 (Total (N=36)): 16 (44) patients, n (%) | TEAE Fatigue, Grade ≥3 (Total (N=36)): 1 (3) patients, n (%) | TEAE Hypocalcemia, Grade 1–2 (Total (N=36)): 4 (11) patients, n (%) | TEAE Hypocalcemia, Grade ≥3 (Total (N=36)): 0 patients, n (%) | TEAE Insomnia, Grade 1–2 (Total (N=36)): 5 (14) patients, n (%) | TEAE Insomnia, Grade ≥3 (Total (N=36)): 0 patients, n (%) | TEAE Lower respiratory tract infection, Grade 1–2 (Total (N=36)): 4 (11) patients, n (%) | TEAE Lower respiratory tract infection, Grade ≥3 (Total (N=36)): 1 (3) patients, n (%) | TEAE Nausea, Grade 1–2 (Total (N=36)): 20 (56) patients, n (%) | TEAE Nausea, Grade ≥3 (Total (N=36)): 1 (3) patients, n (%) | TEAE Neutropenia, Grade 1–2 (Total (N=36)): 4 (11) patients, n (%) | TEAE Neutropenia, Grade ≥3 (Total (N=36)): 9 (25) patients, n (%) | TEAE Neutrophil count decreased, Grade 1–2 (Total (N=36)): 0 patients, n (%) | TEAE Neutrophil count decreased, Grade ≥3 (Total (N=36)): 4 (11) patients, n (%) | TEAE Platelet count decreased, Grade 1–2 (Total (N=36)): 4 (11) patients, n (%) | TEAE Platelet count decreased, Grade ≥3 (Total (N=36)): 2 (6) patients, n (%) | TEAE Pyrexia, Grade 1–2 (Total (N=36)): 9 (25) patients, n (%) | TEAE Pyrexia, Grade ≥3 (Total (N=36)): 0 patients, n (%) | TEAE Thrombocytopenia, Grade 1–2 (Total (N=36)): 12 (33) patients, n (%) | TEAE Thrombocytopenia, Grade ≥3 (Total (N=36)): 13 (36) patients, n (%) | TEAE Upper respiratory tract infection, Grade 1–2 (Total (N=36)): 4 (11) patients, n (%) | TEAE Upper respiratory tract infection, Grade ≥3 (Total (N=36)): 0 patients, n (%) | TEAE Vomiting, Grade 1–2 (Total (N=36)): 7 (19) patients, n (%) | TEAE Vomiting, Grade ≥3 (Total (N=36)): 2 (6) patients, n (%) | TEAE White blood cell count decreased, Grade 1–2 (Total (N=36)): 0 patients, n (%) | TEAE White blood cell count decreased, Grade ≥3 (Total (N=36)): 5 (14) patients, n (%) | TEAE anemia, any grade, patients [3]: 69.4% | TEAE fatigue, any grade, patients [3]: 47% | TEAE grade ≥3 anemia, patients [3]: 39% | TEAE grade ≥3 neutropenia, patients [3]: 25% | TEAE grade ≥3 thrombocytopenia, patients [3]: 36% | TEAE nausea, any grade, patients [3]: 58% | TEAE neutropenia, any grade, patients [3]: 36% | TEAE thrombocytopenia, any grade, patients [3]: 69.4% | AEs with a fatal outcome (all cohorts): no AEs with a fatal outcome were reported | Clinical chemistry laboratory variables, vital signs, ECG parameters (all cohorts): No clinically significant findings | Patients with dose modifications (cycle 1 and beyond, N=36): 47% | Patients with dose reductions (cycle 1 and beyond, N=36): 25% | Patients with treatment interruptions (cycle 1 and beyond, N=36): 31% | MTD dose schedule (concurrent) (days 1–2, with carboplatin AUC5, 21-day cycles): 40 mg once daily | MTD dose schedule (sequential) (days 4–13, with carboplatin AUC5, 21-day cycles): 20 mg twice daily | Patients who experienced ≥1 TEAE (safety set N=36): 36 patients
